According to ChEMBL document CHEMBL3244225, “Synthesis and biological activity of some vinyl-substituted 2-nitroimidazoles” (J Med Chem, 1977):
≈ marks a conversion by molar mass, not a printed value.

What was measured:
[1] = tested on: Candida albicans; experiment: Antimicrobial activity against Candida albicans SKF 2270 by tube dilution method; assay type: functional
[2] = tested on: Klebsiella pneumoniae; experiment: Antimicrobial activity against Klebsiella pneumoniae I.S.M. by tube dilution method; assay type: functional
[3] = tested on: Escherichia coli; experiment: Antimicrobial activity against Escherichia coli SKF 12140 by tube dilution method; assay type: functional
[4] = tested on: Trichomonas vaginalis; experiment: Ratio of metronidazole ED50 to compound ED50 for Trichomonas vaginalis infected in sc dosed mouse; assay type: functional
[5] = tested on: Clostridium perfringens; experiment: Antimicrobial activity against Clostridium perfringens ISS 30543 by tube dilution method; assay type: functional
[6] = tested on: Salmonella typhimurium; experiment: Antimicrobial activity against Salmonella typhimurium Kh by tube dilution method; assay type: functional, Salmonella enterica subsp. enterica serovar Typhimurium; details: Salmonella enterica
[7] = tested on: Shigella sonnei; experiment: Antimicrobial activity against Shigella sonnei ATCC 9290 by tube dilution method; assay type: functional
[8] = tested on: Trichophyton mentagrophytes; experiment: Antimicrobial activity against Trichophyton mentagrophytes SKF 17410 by tube dilution method; assay type: functional
[9] = tested on: Proteus vulgaris; experiment: Antimicrobial activity against Proteus vulgaris X19 H ATCC 881 by tube dilution method; assay type: functional
[10] = tested on: Staphylococcus aureus; experiment: Antimicrobial activity against Staphylococcus aureus Tour by tube dilution method; assay type: functional
[11] = tested on: Streptococcus pyogenes; experiment: Antimicrobial activity against Streptococcus haemolyticus C 203 by tube dilution method; assay type: functional
[12] = tested on: Trichomonas vaginalis; experiment: Trichomonastatic activity against Trichomonas vaginalis by tube dilution method; assay type: functional
[13] = tested on: Streptococcus pneumoniae; experiment: Antimicrobial activity against Diplococcus pneumoniae UC41 by tube dilution method; assay type: functional
[14] = tested on: Trichomonas vaginalis; experiment: Trichomonacidal activity against Trichomonas vaginalis by tube dilution method; assay type: functional
[15] = tested on: Mycobacterium tuberculosis; experiment: Antimicrobial activity against Mycobacterium tuberculosis ATCC 9360 by tube dilution method; assay type: functional
[16] = tested on: Pseudomonas aeruginosa; experiment: Antimicrobial activity against Pseudomonas aeruginosa ATCC 10145 by tube dilution method; assay type: functional
[17] = Toxicity in po dosed mouse infected with Trichomonas vaginalis; assay type: organism-based; details: in vivo
[18] = tested on: Mycoplasmoides gallisepticum; experiment: Antimicrobial activity against Mycoplasma gallisepticum H21 C.Z.B. by tube dilution method; assay type: functional
[19] = tested on: Trichomonas vaginalis; experiment: Antimicrobial activity against Trichomonas vaginalis infected in sc dosed mouse; assay type: functional

SMILES	MIC [1] [µg/mL]	MIC [2] [µg/mL]	MIC [3] [µg/mL]	Ratio ED50 [4]	MIC [5] [µg/mL]	MIC [6] [µg/mL]	MIC [7] [µg/mL]	MIC [8] [µg/mL]	MIC [9] [µg/mL]	MIC [10] [µg/mL]	MIC [11] [µg/mL]	MIC [12] [µg/mL]	MIC [13] [µg/mL]	MIC [14] [µg/mL]	MIC [15] [µg/mL]	MIC [16] [µg/mL]	LD50 [17] [mg/kg]	MIC [18] [µg/mL]	ED50 [19] [mg/kg]
CCCC/C(=C\c1cnc([N+](=O)[O-])n1C)[N+](=O)[O-]	20 (≈ 78.7 µM)	100 (≈ 393 µM)	10 (≈ 39.3 µM)	>2.9	5 (≈ 19.7 µM)	50 (≈ 197 µM)	50 (≈ 197 µM)	1 (≈ 3.93 µM)	50 (≈ 197 µM)	2 (≈ 7.87 µM)	5 (≈ 19.7 µM)	10 (≈ 39.3 µM)	2 (≈ 7.87 µM)	50 (≈ 197 µM)	2 (≈ 7.87 µM)	100 (≈ 393 µM)	500	5 (≈ 19.7 µM)	–
CC(/C=C/c1cnc([N+](=O)[O-])n1C)=N\N(C)C	> 100	> 100	50 (≈ 211 µM)	–	10 (≈ 42.1 µM)	> 100	> 100	> 100	> 100	100 (≈ 421 µM)	> 100	20 (≈ 84.3 µM)	> 100	50 (≈ 211 µM)	20 (≈ 84.3 µM)	> 100	–	> 100	–
CCOC(=O)/C=C/c1cnc([N+](=O)[O-])n1C	> 100	> 100	50 (≈ 222 µM)	–	50 (≈ 222 µM)	> 100	> 100	100 (≈ 444 µM)	> 100	> 100	100 (≈ 444 µM)	20 (≈ 88.8 µM)	100 (≈ 444 µM)	100 (≈ 444 µM)	50 (≈ 222 µM)	> 100	–	100 (≈ 444 µM)	–
Cc1cnc([N+](=O)[O-])n1CCOS(C)(=O)=O	> 100	> 100	100 (≈ 401 µM)	0.6	20 (≈ 80.2 µM)	100 (≈ 401 µM)	100 (≈ 401 µM)	> 100	> 100	100 (≈ 401 µM)	100 (≈ 401 µM)	50 (≈ 201 µM)	> 100	100 (≈ 401 µM)	> 100	> 100	800	> 100	8.12
CC(/C=C/c1cnc([N+](=O)[O-])n1C)=N\N1CCN(CCO)CC1	> 100	> 100	100 (≈ 310 µM)	–	5 (≈ 15.5 µM)	> 100	> 100	> 100	> 100	50 (≈ 155 µM)	100 (≈ 310 µM)	20 (≈ 62 µM)	100 (≈ 310 µM)	50 (≈ 155 µM)	50 (≈ 155 µM)	> 100	–	> 100	–
Cc1cc(-c2cnc([N+](=O)[O-])n2C)n(CCO)n1	> 100	> 100	50 (≈ 199 µM)	–	100 (≈ 398 µM)	> 100	> 100	> 100	> 100	20 (≈ 79.6 µM)	50 (≈ 199 µM)	10 (≈ 39.8 µM)	50 (≈ 199 µM)	50 (≈ 199 µM)	> 100	> 100	–	> 100	–
Cc1cnc(/N=C/C=C/c2cnc([N+](=O)[O-])n2C)n1C	> 20	> 20	> 20	–	10 (≈ 36.5 µM)	> 20	> 20	> 20	> 20	> 20	> 20	50 (≈ 182 µM)	> 20	100 (≈ 365 µM)	> 20	> 20	–	> 20	–
Cn1c(/C=[N+](/C)[O-])cnc1[N+](=O)[O-]	> 100	50 (≈ 272 µM)	10 (≈ 54.3 µM)	–	10 (≈ 54.3 µM)	20 (≈ 109 µM)	20 (≈ 109 µM)	> 100	20 (≈ 109 µM)	50 (≈ 272 µM)	50 (≈ 272 µM)	100 (≈ 543 µM)	50 (≈ 272 µM)	> 100	50 (≈ 272 µM)	100 (≈ 543 µM)	–	20 (≈ 109 µM)	–
COC(=O)c1cnc([N+](=O)[O-])n1C	> 100	> 100	20 (≈ 108 µM)	–	5 (≈ 27 µM)	100 (≈ 540 µM)	100 (≈ 540 µM)	> 100	> 100	50 (≈ 270 µM)	> 100	> 50	50 (≈ 270 µM)	–	> 100	> 100	–	> 100	–
CC(=O)c1cnc([N+](=O)[O-])n1C	> 100	100 (≈ 591 µM)	10 (≈ 59.1 µM)	–	20 (≈ 118 µM)	100 (≈ 591 µM)	50 (≈ 296 µM)	50 (≈ 296 µM)	100 (≈ 591 µM)	50 (≈ 296 µM)	100 (≈ 591 µM)	50 (≈ 296 µM)	20 (≈ 118 µM)	> 100	50 (≈ 296 µM)	> 100	–	100 (≈ 591 µM)	–
C=Cn1c(C)cnc1[N+](=O)[O-]	> 100	> 100	> 100	0.6	> 100	> 100	> 100	> 100	> 100	> 100	> 100	20 (≈ 131 µM)	> 100	50 (≈ 326 µM)	> 100	> 100	75	> 100	–
Cn1c(C=O)cnc1[N+](=O)[O-]	50 (≈ 322 µM)	10 (≈ 64.5 µM)	10 (≈ 64.5 µM)	–	10 (≈ 64.5 µM)	2 (≈ 12.9 µM)	20 (≈ 129 µM)	10 (≈ 64.5 µM)	50 (≈ 322 µM)	50 (≈ 322 µM)	50 (≈ 322 µM)	100 (≈ 645 µM)	20 (≈ 129 µM)	> 100	10 (≈ 64.5 µM)	10 (≈ 64.5 µM)	–	–	–
C=Cc1cnc([N+](=O)[O-])n1C	100 (≈ 653 µM)	10 (≈ 65.3 µM)	10 (≈ 65.3 µM)	3	0.5 (≈ 3.26 µM)	5 (≈ 32.6 µM)	20 (≈ 131 µM)	50 (≈ 326 µM)	100 (≈ 653 µM)	50 (≈ 326 µM)	> 100	1 (≈ 6.53 µM)	> 100	1 (≈ 6.53 µM)	20 (≈ 131 µM)	20 (≈ 131 µM)	480	–	14
O=C1CN(/N=C/c2ccc([N+](=O)[O-])o2)C(=O)N1 [NITROFURANTOIN]	–	50 (≈ 210 µM)	5 (≈ 21 µM)	–	–	20 (≈ 84 µM)	10 (≈ 42 µM)	–	100 (≈ 420 µM)	10 (≈ 42 µM)	–	–	1 (≈ 4.2 µM)	–	50 (≈ 210 µM)	> 100	–	–	–
Br.CC(/C=C/c1cnc([N+](=O)[O-])n1C)=N\NC1=NCCN1	> 100	> 100	100	–	100	> 100	> 100	> 100	> 100	50	20	20	20	100	> 100	> 100	–	100	–
CCCCC(C(O)c1cnc([N+](=O)[O-])n1C)[N+](=O)[O-] (stereo unspecified)	50 (≈ 184 µM)	100 (≈ 367 µM)	50 (≈ 184 µM)	–	20 (≈ 73.5 µM)	50 (≈ 184 µM)	50 (≈ 184 µM)	50 (≈ 184 µM)	100 (≈ 367 µM)	50 (≈ 184 µM)	> 100	> 100	100 (≈ 367 µM)	–	50 (≈ 184 µM)	20 (≈ 73.5 µM)	–	50 (≈ 184 µM)	–
CC(/C=C/c1cnc([N+](=O)[O-])n1C)=N\N1CCCC(O)C1 (stereo unspecified)	> 100	> 100	100 (≈ 341 µM)	–	20 (≈ 68.2 µM)	> 100	> 100	100 (≈ 341 µM)	> 100	20 (≈ 68.2 µM)	> 100	20 (≈ 68.2 µM)	100 (≈ 341 µM)	50 (≈ 170 µM)	50 (≈ 170 µM)	> 100	–	> 100	–
COC(=O)/C=C/c1cnc([N+](=O)[O-])n1C	> 100	> 100	50 (≈ 237 µM)	>2.8	> 100	100 (≈ 474 µM)	100 (≈ 474 µM)	100 (≈ 474 µM)	> 100	> 100	> 100	10 (≈ 47.4 µM)	> 100	50 (≈ 237 µM)	50 (≈ 237 µM)	> 100	> 1000	> 100	–
Cc1ccc(S(=O)(=O)OCCn2c(C)cnc2[N+](=O)[O-])cc1	> 100	> 100	> 100	>7	50 (≈ 154 µM)	> 100	> 100	> 100	> 100	> 100	> 100	50 (≈ 154 µM)	> 100	100 (≈ 307 µM)	100 (≈ 307 µM)	> 100	> 1000	> 100	–
CC(/C=C/c1cnc([N+](=O)[O-])n1C)=N\NC(N)=S	> 50	> 50	> 50	–	5 (≈ 18.6 µM)	> 50	> 50	> 50	> 50	10 (≈ 37.3 µM)	20 (≈ 74.5 µM)	50 (≈ 186 µM)	> 50	100 (≈ 373 µM)	10 (≈ 37.3 µM)	> 50	–	> 50	–
Cc1ncc([N+](=O)[O-])n1CCO [METRONIDAZOLE]	–	–	–	–	–	–	–	–	–	–	–	0.5 (≈ 2.92 µM)	–	2 (≈ 11.7 µM)	–	–	–	–	12.3
